In patent EP4603105A1, “PHARMACEUTICAL COMPOSITION CONTAINING CYCLIC COMPOUND HAVING SELECTIVE KRAS INHIBITORY EFFECT AGAINST HRAS AND NRAS” (CHUGAI SEIYAKU KABUSHIKI KAISHA, priority 2022, dated 2024):

Columns and labels:
[1] = biological target: GDP-bound KRAS wild-type protein (Homo sapiens, UniProt P01116); test: Binding to KRAS by surface plasmon resonance (SPR), dissociation constant KD; settings: 1:1 binding model
Procedure, shortened: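 Measured at 30°C: SPR with GDP-loaded, E. coli-expressed biotin-Avi RAS captured (~100–300 RU), ascending 75 s compound injections, HBS pH 7.4 with GDP, MgCl2, 4% DMSO. KD from 1:1 fit.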

[2] = biological target: GDP-bound NRAS wild-type protein (Homo sapiens, UniProt P01111); test: Binding to NRAS by surface plasmon resonance (SPR), KD and KD ratio to KRAS; settings: ratio of KD for GDP-bound NRAS wild-type protein to KD for KRAS
Procedure, shortened: (§1)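 Biotinylated GDP-bound RAS was captured at about 100–300 RU. Running buffer: HBS pH 7.4, 10 mM MgCl2, 10 µM GDP, 1 mM DTT, 0.01% Tween 20, 4% DMSO.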

[3] = biological target: HRAS wild-type protein (Homo sapiens, UniProt P01112); test: Binding to HRAS by surface plasmon resonance (SPR), KD and KD ratio to KRAS; settings: ratio of KD for HRAS wild-type protein to KD for KRAS
Procedure, shortened: as §1

[4] = test system: human lung cancer strain NCI-H441; test: NCI-H441 cell proliferation inhibitory activity (CellTiter-Glo, 4 days); format: cell-based; settings: NCI-H441 cells, 4 days, read-out: NCl-H441 IC50
Procedure, shortened: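 Step one: dispense the test compound in serial DMSO dilutions. Step three: add the reagent and measure […].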

Chain of GDP-bound KRAS wild-type protein (P01116 1-188 isoform P01116-2): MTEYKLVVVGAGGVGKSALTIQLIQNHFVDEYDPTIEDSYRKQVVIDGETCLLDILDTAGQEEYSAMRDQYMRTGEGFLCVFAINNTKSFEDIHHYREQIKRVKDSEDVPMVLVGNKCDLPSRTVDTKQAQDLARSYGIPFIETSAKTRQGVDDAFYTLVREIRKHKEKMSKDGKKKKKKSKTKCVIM
Chain of HRAS wild-type protein (P01112 whole entry): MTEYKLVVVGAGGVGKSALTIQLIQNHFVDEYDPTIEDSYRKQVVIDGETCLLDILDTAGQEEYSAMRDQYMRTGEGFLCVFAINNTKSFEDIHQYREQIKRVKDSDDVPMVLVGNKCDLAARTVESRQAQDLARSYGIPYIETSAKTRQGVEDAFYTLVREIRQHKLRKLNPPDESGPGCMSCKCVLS
Chain of GDP-bound NRAS wild-type protein (P01111 whole entry): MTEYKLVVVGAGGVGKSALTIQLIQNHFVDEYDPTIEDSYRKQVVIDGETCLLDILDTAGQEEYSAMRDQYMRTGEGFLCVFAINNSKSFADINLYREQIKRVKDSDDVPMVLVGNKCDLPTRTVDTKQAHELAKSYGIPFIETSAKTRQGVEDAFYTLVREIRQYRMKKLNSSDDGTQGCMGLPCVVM

CC[C@H](C)[C@@H]1NC(=O)[C@H](COC)N(C)C(=O)C[C@@H](C(=O)N(C)C)N(C)C(=O)[C@H](C2CCCC2)N(C)C(=O)C2(CC(C)(C)C2)NC(=O)[C@@H]2C[C@@H](OC(C)C)CN2C(=O)[C@H](CCc2cc(F)c(C(F)(F)F)c(F)c2)NC(=O)CN(C)C(=O)[C@H](CC2CCCCC2)N2CC/C=C\C[C@@H](C2=O)N(C)C(=O)CN(C2CC2)C1=O [PP2511]
Kd [1]: 0.95 nM | NRAS /KRAS [2]: A (a compound having 10 or more and less than 20 is denoted as A) | HRAS /KRAS [3]: A (a compound having 10 or more and less than 20 is denoted as A) | IC50 [4]: 107 nM

C#CCN1CC(=O)N(C)[C@H]2C/C=C\CCN(C2=O)[C@@H](Cc2ccc(C)cc2)C(=O)N(C)CC(=O)N[C@@H](CCc2cc(F)c(C(F)(F)F)c(F)c2)C(=O)N2C[C@H](OCC)C[C@H]2C(=O)NC2(CC(C)(C)C2)C(=O)N(C)[C@@H](C2CCCC2)C(=O)N(C)[C@H](C(=O)N(C)C)CC(=O)N(C)[C@@H](CCC)C(=O)N[C@@H](CC(C)C)C1=O [PP2512]
Kd [1]: 2 nM | NRAS /KRAS [2]: A (a compound having 10 or more and less than 20 is denoted as A) | HRAS /KRAS [3]: A (a compound having 10 or more and less than 20 is denoted as A) | IC50 [4]: 109 nM

CC[C@H](C)[C@@H]1NC(=O)[C@H](COC)N(C)C(=O)C[C@@H](C(=O)N(C)C)N(C)C(=O)[C@H](C2CCCC2)N(C)C(=O)C2(CC(C)(C)C2)NC(=O)[C@@H]2C[C@@H](OC(C)C)CN2C(=O)[C@H](CCc2ccc(Cl)c(Cl)c2)NC(=O)CN(C)C(=O)[C@H](CC2CCCCC2)N2CC/C=C\C[C@@H](C2=O)N(C)C(=O)CN(C2CC2)C1=O [PP2513]
Kd [1]: 2.6 nM | NRAS /KRAS [2]: A (a compound having 10 or more and less than 20 is denoted as A) | HRAS /KRAS [3]: A (a compound having 10 or more and less than 20 is denoted as A) | IC50 [4]: 303 nM

C#CCN1CC(=O)N(C)[C@H]2C/C=C\CCN(C2=O)[C@@H](Cc2ccc(C)cc2)C(=O)N(C)CC(=O)N[C@@H](CCc2ccc(C(F)(F)F)c(OC)c2)C(=O)N2C[C@H](OCC)C[C@H]2C(=O)NC2(CC(C)(C)C2)C(=O)N(C)[C@@H](C2CCCC2)C(=O)N(C)[C@H](C(=O)N(C)C)CC(=O)N(C)[C@@H](CCC)C(=O)N[C@@H](CC(C)C)C1=O [PP2514]
Kd [1]: 2.4 nM | NRAS /KRAS [2]: A (a compound having 10 or more and less than 20 is denoted as A) | HRAS /KRAS [3]: B (a compound having 3 or more and less than 10 is denoted as B) | IC50 [4]: 86.8 nM

CCC(CC)[C@H]1C(=O)N(C)[C@H](C(=O)N(C)C)CC(=O)N(C)[C@@H](COC)C(=O)N[C@@H]([C@@H](C)CC)C(=O)N(C2CC2)CC(=O)N(C)[C@H]2C/C=C\CCN(C2=O)[C@@H](CC2CCCCC2)C(=O)N(C)CC(=O)N[C@@H](CCc2cc(F)c(C(F)(F)F)c(F)c2)C(=O)N2C[C@H](OC(C)C)C[C@H]2C(=O)NC2(CC(C)(C)C2)C(=O)N1C [PP2515]
Kd [1]: 5.1 nM | NRAS /KRAS [2]: A (a compound having 10 or more and less than 20 is denoted as A) | HRAS /KRAS [3]: A (a compound having 10 or more and less than 20 is denoted as A) | IC50 [4]: 384 nM

CCC[C@H]1C(=O)N[C@@H](CC(C)C)C(=O)N(CC)CC(=O)N(C)[C@H]2C/C=C\CCN(C2=O)[C@@H](Cc2ccc(C)cc2)C(=O)N(C)CC(=O)N[C@@H](CCc2cc(F)c(C(F)(F)F)c(F)c2)C(=O)N2C[C@H](OCC)C[C@H]2C(=O)NC2(CC(C)(C)C2)C(=O)N(C)[C@@H](C2CCCC2)C(=O)N(C)[C@H](C(=O)N(C)C)CC(=O)N1C [PP2516]
Kd [1]: 2.9 nM | NRAS /KRAS [2]: A (a compound having 10 or more and less than 20 is denoted as A) | HRAS /KRAS [3]: B (a compound having 3 or more and less than 10 is denoted as B) | IC50 [4]: 124 nM

CCC[C@H]1C(=O)N[C@@H](CC(C)C)C(=O)N(CCOC)CC(=O)N(C)[C@H]2C/C=C\CCN(C2=O)[C@@H](Cc2ccc(C)cc2)C(=O)N(C)CC(=O)N[C@@H](CCc2cc(F)c(C(F)(F)F)c(F)c2)C(=O)N2C[C@H](OCC)C[C@H]2C(=O)NC2(CC(C)(C)C2)C(=O)N(C)[C@@H](C2CCCC2)C(=O)N(C)[C@H](C(=O)N(C)C)CC(=O)N1C [PP2520]
Kd [1]: 3.3 nM | NRAS /KRAS [2]: A (a compound having 10 or more and less than 20 is denoted as A) | HRAS /KRAS [3]: A (a compound having 10 or more and less than 20 is denoted as A) | IC50 [4]: 210 nM

CCC[C@H]1C(=O)N[C@@H]([C@@H](C)CC)C(=O)N(C2CC2)CC(=O)N(C)[C@H]2C/C=C\CCN(C2=O)[C@@H](CC2CCC(F)(F)CC2)C(=O)N(C)CC(=O)N[C@@H](CCc2ccc(Cl)c(Cl)c2)C(=O)N2C[C@H](OC(C)C)C[C@H]2C(=O)NC2(CC(C)(C)C2)C(=O)N(C)[C@@H](C2CCCC2)C(=O)N(C)[C@H](C(=O)N(C)C)CC(=O)N1C [PP2521]
Kd [1]: 2.8 nM | NRAS /KRAS [2]: A (a compound having 10 or more and less than 20 is denoted as A) | HRAS /KRAS [3]: A (a compound having 10 or more and less than 20 is denoted as A) | IC50 [4]: 129 nM

CCC(CC)[C@H]1C(=O)N(C)[C@H](C(=O)N(C)C)CC(=O)N(C)[C@@H](COC)C(=O)N[C@@H]([C@@H](C)CC)C(=O)N(C2CC2)CC(=O)N(C)[C@H]2C/C=C\CCN(C2=O)[C@@H](CC2CCC(F)(F)CC2)C(=O)N(C)CC(=O)N[C@@H](CCc2ccc(Cl)c(Cl)c2)C(=O)N2C[C@H](OC(C)C)C[C@H]2C(=O)NC2(CC(C)(C)C2)C(=O)N1C [PP2525]
Kd [1]: 3.8 nM | NRAS /KRAS [2]: AA (a compound having 20 or more is denoted as AA) | HRAS /KRAS [3]: A (a compound having 10 or more and less than 20 is denoted as A) | IC50 [4]: 142 nM

C#CCN1CC(=O)N(C)[C@H]2C/C=C\CCN(C2=O)[C@@H](Cc2ccc(C)cc2)C(=O)N(C)CC(=O)N[C@@H](CCc2ccc(C(F)(F)F)c(Cl)c2)C(=O)N2C[C@H](OCC)C[C@H]2C(=O)NC2(CC(C)(C)C2)C(=O)N(C)[C@@H](C2CCCC2)C(=O)N(C)[C@H](C(=O)N(C)C)CC(=O)N(C)[C@@H](CCC)C(=O)N[C@@H](CC(C)C)C1=O [PP2526]
Kd [1]: 4 nM | NRAS /KRAS [2]: A (a compound having 10 or more and less than 20 is denoted as A) | HRAS /KRAS [3]: B (a compound having 3 or more and less than 10 is denoted as B) | IC50 [4]: 54.5 nM

CCC[C@H]1C(=O)N[C@@H]([C@@H](C)CC)C(=O)N(C2CC2)CC(=O)N(C)[C@H]2C/C=C\CCN(C2=O)[C@@H](Cc2ccc(C(F)F)cc2)C(=O)N(C)CC(=O)N[C@@H](CCc2cc(F)c(C(F)(F)F)c(F)c2)C(=O)N2C[C@H](OCC)C[C@H]2C(=O)NC2(CC(C)(C)C2)C(=O)N(C)[C@@H](C(CC)CC)C(=O)N(C)[C@H](C(=O)N(C)C)CC(=O)N1C [PP2527]
Kd [1]: 0.65 nM | NRAS /KRAS [2]: AA (a compound having 20 or more is denoted as AA) | HRAS /KRAS [3]: A (a compound having 10 or more and less than 20 is denoted as A) | IC50 [4]: 31 nM

CCC[C@H]1C(=O)N[C@@H](CC(C)C)C(=O)N(CC)CC(=O)N(C)[C@H]2C/C=C\CCN(C2=O)[C@@H](Cc2ccc(C)cc2)C(=O)N(C)CC(=O)N[C@@H](CCc2ccc(C(F)(F)F)c(Cl)c2)C(=O)N2C[C@H](OCC)C[C@H]2C(=O)NC2(CC(C)(C)C2)C(=O)N(C)[C@@H](C2CCCC2)C(=O)N(C)[C@H](C(=O)N(C)C)CC(=O)N1C [PP2528]
Kd [1]: 4.6 nM | NRAS /KRAS [2]: A (a compound having 10 or more and less than 20 is denoted as A) | HRAS /KRAS [3]: B (a compound having 3 or more and less than 10 is denoted as B) | IC50 [4]: 207 nM

CCC[C@H]1C(=O)N[C@@H]([C@@H](C)CC)C(=O)N(C2CC2)CC(=O)N(C)[C@H]2C/C=C\CCN(C2=O)[C@@H](Cc2ccc(C(F)F)cc2)C(=O)N(C)CC(=O)N[C@@H](CCc2cc(F)c(C(F)(F)F)c(F)c2)C(=O)N2C[C@H](OC(C)C)C[C@H]2C(=O)NC2(CC(C)(C)C2)C(=O)N(C)[C@@H](C(CC)CC)C(=O)N(C)[C@H](C(=O)N(C)C)CC(=O)N1C [PP2529]
Kd [1]: 0.77 nM | NRAS /KRAS [2]: AA (a compound having 20 or more is denoted as AA) | HRAS /KRAS [3]: A (a compound having 10 or more and less than 20 is denoted as A) | IC50 [4]: 64 nM

CCC[C@H]1C(=O)N[C@@H](CC(C)C)C(=O)N(C2CC2)CC(=O)N(C)[C@H]2C/C=C\CCN(C2=O)[C@@H](Cc2ccc(C)cc2)C(=O)N(C)CC(=O)N[C@@H](CCc2cc(F)c(C(F)(F)F)c(F)c2)C(=O)N2C[C@H](OCC)C[C@H]2C(=O)NC2(CCC2)C(=O)N(C)[C@@H](C2CCCC2)C(=O)N(C)[C@H](C(=O)N(C)C)CC(=O)N1C [PP2532]
Kd [1]: 4.1 nM | NRAS /KRAS [2]: A (a compound having 10 or more and less than 20 is denoted as A) | HRAS /KRAS [3]: B (a compound having 3 or more and less than 10 is denoted as B) | IC50 [4]: 144 nM
